# Test results taken from ChEMBL document CHEMBL5338744, “Development and Characterization of Benzoselenazole Derivatives as Potent and Selective c-MYC Transcription Inhibitors” (J Med Chem, 2023).
# pIC50, pKd: −log10 of the molar value. Activity calls are given as the source filed them. The calls are words filed in the database; no cut-off is given here.
# Key:
# [1] = Cytotoxicity against human NCM460 cells assessed as reduction in cell viability incubated for 48 hrs by MTT assay; type: toxicity, cell-based
# HepG2 [2] = experiment: Cytotoxicity against human HepG2 cells assessed as reduction in cell viability incubated for 48 hrs by MTT assay; type: functional, cell-based; conditions: HepG2, 48 h
# HCT-116 = experiment: Cytotoxicity against human HCT-116 cells assessed as reduction in cell viability incubated for 48 hrs by MTT assay; type: functional, cell-based; conditions: HCT-116, 48 h
# [3] = Toxicity in BALB/C-nu/nu mouse xenografted with human HepG2 cells assessed as abnormality in heart at 15 mg/kg, ip administered every other day for 28 days by hematoxylin and eosin staining method; type: organism-based; conditions: in vivo, 672 h, time 28 day
# Quadruplex DNA [4] = experiment: Binding affinity to G-quadruplex DNA HRAS (unknown origin) by fluorescence spectroscopic analysis; type: nucleic-acid assay
# HepG2 [5] = experiment: Inhibition of colony formation in human HepG2 cells at 1 uM measured after 14 days by crystal violet staining based assay; type: functional, cell-based; conditions: time 14.0 day
# HepG2 [6] = experiment: Downregulation of c-MYC expression level in human HepG2 cells incubated for 48 hrs by Western blotting analysis; type: functional, cell-based; conditions: dose 0-10 µM
# [7] = Toxicity in BALB/C-nu/nu mouse xenografted with human HepG2 cells assessed as sign of pain at 15 mg/kg, ip administered every other day for 28 days; type: organism-based; conditions: in vivo, 672 h, time 28 day
# Quadruplex DNA [8] = experiment: Binding affinity to G-quadruplex DNA htg22 (unknown origin) by fluorescence spectroscopic analysis; type: nucleic-acid assay
# [9] = Toxicity in BALB/C-nu/nu mouse xenografted with human HepG2 cells assessed as abnormality in lung at 15 mg/kg, ip administered every other day for 28 days by hematoxylin and eosin staining method; type: organism-based; conditions: in vivo, 672 h, time 28 day
# [10] = Cytotoxicity against human L02 cells assessed as reduction in cell viability incubated for 48 hrs by MTT assay; type: toxicity, cell-based
# Quadruplex DNA [11] = experiment: Binding affinity to G-quadruplex DNA ds26 (unknown origin) by fluorescence spectroscopic analysis; type: nucleic-acid assay
# [12] = Toxicity in BALB/C-nu/nu mouse xenografted with human HepG2 cells assessed as abnormality in spleen at 15 mg/kg, ip administered every other day for 28 days by hematoxylin and eosin staining method; type: organism-based; conditions: in vivo, 672 h, time 28 day
# Quadruplex DNA [13] = experiment: Binding affinity to G-quadruplex DNA pu22 (unknown origin) assessed as melting temperature at 10 uM by circular dichroism analysis
# HepG2 [14] = experiment: Disruption of NM23-H2/c-MYC G quadruplex DNA interaction in human HepG2 cells at 1.25 uM incubated for 1 hr by ChIP assay; type: cell-based
# [15] = Toxicity in nude mouse assessed as changes in body weight at 30 mg/kg administered for 5 days; type: organism-based; conditions: in vivo, 120 h, time 5 day
# [16] = Toxicity in BALB/C-nu/nu mouse xenografted with human HepG2 cells assessed as abnormality in liver at 15 mg/kg, ip administered every other day for 28 days by hematoxylin and eosin staining method; type: organism-based; conditions: in vivo, 672 h, time 28 day
# HepG2 [17] = experiment: Induction of apoptosis in human hepG2 cells assessed as early apoptotic cells at 1.25 to 5 uM incubated for 48 hrs by Annexin V-FITC and propidium iodide staining based flow cytometric analysis; type: functional; conditions: dose 1.25-5 µM
# Quadruplex DNA [18] = experiment: Binding affinity to G-quadruplex DNA pu22 (unknown origin) by fluorescence spectroscopic analysis; type: nucleic-acid assay
# HepG2 [19] = experiment: Effect on cell cycle distribution in human HepG2 cells assessed as accumulation of cells in S phase at 1.25 to 5 uM incubated for 48 hrs by PI staining based flow cytometric analysis; type: functional; conditions: dose 1.25-5 µM
# HepG2 [20] = experiment: Antitumor activity against human HepG2 cells xenografted in BALB/C-nu/nu mouse assessed as decrease in c-MYC expression in tumor tissue at 15 mg/kg, ip administered every other day for 28 days by immunohistochemical analysis; type: functional, organism-based; conditions: time 28.0 day
# [21] = Toxicity in BALB/C-nu/nu mouse xenografted with human HepG2 cells assessed as sign of distress at 15 mg/kg, ip administered every other day for 28 days; type: organism-based; conditions: in vivo, 672 h, time 28 day
# [22] = Disruption of NM23-H2/c-MYC G quadruplex DNA (unknown origin) interaction incubated for 1 hr by ELISA
# HepG2 [23] = experiment: Antitumor activity against human HepG2 cells xenografted in BALB/C-nu/nu mouse assessed as reduction in tumor volume at 15 mg/kg, ip administered every other day for 28 days; type: functional, organism-based; conditions: time 28.0 day
# HepG2 [24] = experiment: Inhibition of c-MYC transcription in human HepG2 cells up to 10 uM incubated for 48 hrs by RT-qPCR analysis; type: functional, cell-based
# [25] = Toxicity in BALB/C-nu/nu mouse xenografted with human HepG2 cells assessed as changes in body weight at 15 mg/kg, ip administered every other day for 28 days; type: organism-based; conditions: in vivo, 672 h, time 28 day
# Quadruplex DNA [26] = experiment: Binding affinity to G-quadruplex DNA pu22 mutant (unknown origin) by fluorescence spectroscopic analysis; type: nucleic-acid assay
# [27] = Toxicity in BALB/C-nu/nu mouse xenografted with human HepG2 cells assessed as abnormality in kidney at 15 mg/kg, ip administered every other day for 28 days by hematoxylin and eosin staining method; type: organism-based; conditions: in vivo, 672 h, time 28 day
# [28] = Toxicity in BALB/C-nu/nu mouse xenografted with human HepG2 cells assessed as sign of discomfort at 15 mg/kg, ip administered every other day for 28 days; type: organism-based; conditions: in vivo, 672 h, time 28 day
# CA46 = experiment: Inhibition of c-MYC G-quadruplex exon 1 transcription in human CA46 cells incubated for 48 hrs by RT-qPCR analysis; type: functional, cell-based; conditions: dose 1.25-2.5 µM
# [29] = Toxicity in nude mouse assessed as mortality at 30 mg/kg administered for 5 days; type: organism-based; conditions: in vivo, 120 h, time 5 day
# Quadruplex DNA [30] = experiment: Binding affinity to G-quadruplex DNA VEGF (unknown origin) by fluorescence spectroscopic analysis; type: nucleic-acid assay
# HepG2 [31] = experiment: Antitumor activity against human HepG2 cells xenografted in BALB/C-nu/nu mouse assessed as reduction in tumor weight at 15 mg/kg, ip administered every other day for 28 days; type: functional, organism-based; conditions: time 28.0 day
# Quadruplex DNA [32] = experiment: Binding affinity to G-quadruplex DNA c-kit1 (unknown origin) by fluorescence spectroscopic analysis; type: nucleic-acid assay
# HepG2 [33] = experiment: Antitumor activity against human HepG2 cells xenografted in BALB/C-nu/nu mouse assessed as tumor growth inhibition at 15 mg/kg, ip administered every other day for 28 days; type: functional; conditions: HepG2, 672 h, time 28 day, read-out: TGI
compound,measurement,setting,value
CCn1c2ccccc2c2cc(/C=C/c3nc4ccccc4[se]3)ccc21,IC50 at 48 h,[1],> 100 µM
same,pIC50,HepG2 [2],4.87
same,pIC50,HCT-116,4.71
CN(C)CCCn1c2ccccc2c2cc(/C=C/c3oc4ccccc4[n+]3C)ccc21,IC50 at 48 h,[1],35.6 µM
same,pIC50,HepG2 [2],5.23
same,pIC50,HCT-116,5.33
CCn1c2ccccc2c2cc(/C=C/c3nc4c(ccc5ccccc54)o3)ccc21,IC50 at 48 h,[1],> 100 µM
same,pIC50,HepG2 [2],< 4.00
same,pIC50,HCT-116,< 4.00
CN(C)CCCn1c2ccccc2c2cc(/C=C/c3[se]c4ccccc4[n+]3C)ccc21,IC50 at 48 h,[1],87.7 µM
same,pIC50,HepG2 [2],4.58
same,pIC50,HCT-116,4.82
CCn1c2ccccc2c2cc(/C=C/c3oc4ccccc4[n+]3C)ccc21,IC50 at 48 h,[1],> 100 µM
same,pIC50,HepG2 [2],4.36
same,pIC50,HCT-116,4.33
CCn1c2ccccc2c2cc(/C=C/c3nc4ccccc4o3)ccc21,IC50 at 48 h,[1],> 100 µM
same,pIC50,HepG2 [2],4.42
same,pIC50,HCT-116,4.49
CCn1c2ccccc2c2cc(/C=C/c3sc4ccc5ccccc5c4[n+]3C)ccc21,IC50 at 48 h,[1],26.1 µM
same,pIC50,HepG2 [2],5.08
same,pIC50,HCT-116,5.60
C[n+]1c(/C=C/c2ccc3c(c2)c2ccccc2n3Cc2ccccc2)sc2ccccc21,IC50 at 48 h,[1],45.6 µM
same,pIC50,HepG2 [2],5.13
same,pIC50,HCT-116,5.39
C[n+]1c(/C=C/c2ccc3c(c2)c2ccccc2n3Cc2ccccc2)[se]c2ccccc21.[I-],Activity,[3],Non-Toxic
same,pKd,Quadruplex DNA [4],< 4.70
same,inhibition,HepG2 [5],Active
same,Activity,HepG2 [6],Dose-Dependent Effect
same,Activity,[7],Non-Toxic
same,pKd,Quadruplex DNA [8],< 4.70
same,Activity,[9],Non-Toxic
same,IC50 at 48 h,[10],> 100 µM
same,pKd,Quadruplex DNA [11],< 4.70
same,Activity,[12],Non-Toxic
same,Tm,Quadruplex DNA [13],78.3 °C
same,IC50 at 48 h,[1],77.6 µM
same,pIC50,HepG2 [2],5.46
same,Activity,HepG2 [14],Active
same,Activity,[15],Toxic
same,Activity,[16],Non-Toxic
same,Activity,HepG2 [17],1.7%
same,pKd,Quadruplex DNA [18],6.05
same,Activity,HepG2 [19],14.6%
same,Activity,HepG2 [20],Active
same,pIC50,HCT-116,5.39
same,Activity,[21],Non-Toxic
same,pIC50,[22],5.01
same,Activity,HepG2 [23],Active
same,inhibition,HepG2 [24],Active
same,Activity,[25],Non-Toxic
same,pKd,Quadruplex DNA [26],< 4.70
same,Activity,[27],Non-Toxic
same,Activity,[28],Non-Toxic
same,inhibition,CA46,Dose-Dependent Effect
same,Activity,[29],Toxic
same,pKd,Quadruplex DNA [30],4.75
same,Activity,HepG2 [31],Active
same,pKd,Quadruplex DNA [32],5.02
same,inhibition in vivo at 15 mg/kg,HepG2 [33],65.8%
CCn1c2ccccc2c2cc(/C=C/c3nc4ccccc4s3)ccc21,IC50 at 48 h,[1],> 100 µM
same,pIC50,HepG2 [2],4.28
same,pIC50,HCT-116,< 4.00
C(=C\c1nc2ccccc2s1)/c1ccc2c(c1)c1ccccc1n2Cc1ccccc1,IC50 at 48 h,[1],> 100 µM
same,pIC50,HepG2 [2],4.27
same,pIC50,HCT-116,< 4.00
C[n+]1c(/C=C/c2ccc3c(c2)c2ccccc2n3Cc2ccccc2)oc2ccccc21,IC50 at 48 h,[1],> 100 µM
same,pIC50,HepG2 [2],4.02
same,pIC50,HCT-116,4.49
CCn1c2ccccc2c2cc(/C=C/c3sc4ccccc4[n+]3C)ccc21,IC50 at 48 h,[1],39.3 µM
same,pIC50,HepG2 [2],5.24
same,pIC50,HCT-116,5.40
CN(C)CCCn1c2ccccc2c2cc(/C=C/c3sc4ccccc4[n+]3C)ccc21,IC50 at 48 h,[1],30.2 µM
same,pIC50,HepG2 [2],4.95
same,pIC50,HCT-116,4.83
CCn1c2ccccc2c2cc(/C=C/c3[se]c4ccccc4[n+]3C)ccc21,pKd,Quadruplex DNA [4],< 4.70
same,Activity,HepG2 [6],Dose-Dependent Effect
same,pKd,Quadruplex DNA [8],5.06
same,IC50 at 48 h,[10],27.3 µM
same,pKd,Quadruplex DNA [11],< 4.70
same,Tm,Quadruplex DNA [13],80.1 °C
same,IC50 at 48 h,[1],29.2 µM
same,pIC50,HepG2 [2],5.80
same,pKd,Quadruplex DNA [18],6.40
same,pIC50,HCT-116,5.47
same,inhibition,HepG2 [24],Active
same,pKd,Quadruplex DNA [26],< 4.70
same,pKd,Quadruplex DNA [30],5.12
same,pKd,Quadruplex DNA [32],5.19
C(=C\c1nc2ccccc2o1)/c1ccc2c(c1)c1ccccc1n2Cc1ccccc1,IC50 at 48 h,[1],> 100 µM
same,pIC50,HepG2 [2],5.24
same,pIC50,HCT-116,4.59
CN(C)CCCn1c2ccccc2c2cc(/C=C/c3nc4ccccc4o3)ccc21,IC50 at 48 h,[1],> 100 µM
same,pIC50,HepG2 [2],4.67
same,pIC50,HCT-116,4.43
C(=C\c1nc2ccccc2[se]1)/c1ccc2c(c1)c1ccccc1n2Cc1ccccc1,IC50 at 48 h,[1],> 100 µM
same,pIC50,HepG2 [2],< 4.00
same,pIC50,HCT-116,< 4.00
CN(C)CCCn1c2ccccc2c2cc(/C=C/c3nc4ccccc4[se]3)ccc21,IC50 at 48 h,[1],> 100 µM
same,pIC50,HepG2 [2],< 4.00
same,pIC50,HCT-116,4.46
CCn1c2ccccc2c2cc(/C=C/c3oc4ccc5ccccc5c4[n+]3C)ccc21,IC50 at 48 h,[1],> 100 µM
same,pIC50,HepG2 [2],4.03
same,pIC50,HCT-116,4.58
CCn1c2ccccc2c2cc(/C=C/c3nc4c(ccc5ccccc54)[se]3)ccc21,IC50 at 48 h,[1],> 100 µM
same,pIC50,HepG2 [2],< 4.00
same,pIC50,HCT-116,< 4.00
CCn1c2ccccc2c2cc(/C=C/c3[se]c4ccc5ccccc5c4[n+]3C)ccc21,IC50 at 48 h,[1],42.5 µM
same,pIC50,HepG2 [2],5.35
same,pIC50,HCT-116,5.05
CN(C)CCCn1c2ccccc2c2cc(/C=C/c3nc4ccccc4s3)ccc21,IC50 at 48 h,[1],> 100 µM
same,pIC50,HepG2 [2],4.67
same,pIC50,HCT-116,4.37
CCn1c2ccccc2c2cc(/C=C/c3nc4c(ccc5ccccc54)s3)ccc21,IC50 at 48 h,[1],> 100 µM
same,pIC50,HepG2 [2],4.23
same,pIC50,HCT-116,< 4.00
